Consider 30 molecules from patent US10039747B2, “Tetrahydrocyclopentapyrrole derivatives and a method for preparing the same” (Daewoong Pharmaceutical Co., Ltd., priority 2013, dated 2018).

Each structure is given as a SMILES string.

The experiment deals with T1, H+/K+-ATPase (Sus scrofa, UniProt P19156).
T1 construct: reaction buffer solution (60 mmol/l Tris-HCl buffer solution, pH 7.4) containing hog gastric vesicle; from tissue; host or cells: hog stomach (gastric vesicles, by centrifugation after Rabon et al. 1988)
T1 sequence (P19156 2-1034 limits assumed): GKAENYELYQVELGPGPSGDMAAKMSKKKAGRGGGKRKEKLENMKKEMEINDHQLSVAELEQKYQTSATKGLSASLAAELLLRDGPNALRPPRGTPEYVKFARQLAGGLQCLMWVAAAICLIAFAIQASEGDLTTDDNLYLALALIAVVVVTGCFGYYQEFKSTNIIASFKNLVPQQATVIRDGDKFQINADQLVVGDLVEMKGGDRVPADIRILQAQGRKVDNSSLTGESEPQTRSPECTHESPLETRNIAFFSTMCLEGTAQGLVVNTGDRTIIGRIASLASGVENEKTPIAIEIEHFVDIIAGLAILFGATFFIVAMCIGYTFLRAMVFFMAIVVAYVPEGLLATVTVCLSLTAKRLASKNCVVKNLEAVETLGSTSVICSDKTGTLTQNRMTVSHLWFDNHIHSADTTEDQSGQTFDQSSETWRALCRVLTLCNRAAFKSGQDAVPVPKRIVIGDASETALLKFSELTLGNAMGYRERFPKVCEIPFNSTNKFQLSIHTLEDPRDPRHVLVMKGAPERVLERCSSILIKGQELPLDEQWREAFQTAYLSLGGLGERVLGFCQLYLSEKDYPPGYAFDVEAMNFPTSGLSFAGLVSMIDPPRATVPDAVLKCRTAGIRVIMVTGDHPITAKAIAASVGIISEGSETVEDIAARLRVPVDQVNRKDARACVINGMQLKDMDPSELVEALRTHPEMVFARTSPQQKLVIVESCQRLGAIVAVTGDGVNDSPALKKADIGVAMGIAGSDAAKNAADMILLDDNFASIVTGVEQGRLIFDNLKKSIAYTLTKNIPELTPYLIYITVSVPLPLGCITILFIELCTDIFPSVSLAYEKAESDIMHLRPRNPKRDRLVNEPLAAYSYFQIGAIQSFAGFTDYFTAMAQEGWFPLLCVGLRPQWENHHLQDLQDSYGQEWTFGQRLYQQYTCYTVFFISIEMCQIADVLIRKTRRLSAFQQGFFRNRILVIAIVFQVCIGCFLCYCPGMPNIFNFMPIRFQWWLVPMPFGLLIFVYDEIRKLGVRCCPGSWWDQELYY
T1 sequence (P18434 whole entry partner): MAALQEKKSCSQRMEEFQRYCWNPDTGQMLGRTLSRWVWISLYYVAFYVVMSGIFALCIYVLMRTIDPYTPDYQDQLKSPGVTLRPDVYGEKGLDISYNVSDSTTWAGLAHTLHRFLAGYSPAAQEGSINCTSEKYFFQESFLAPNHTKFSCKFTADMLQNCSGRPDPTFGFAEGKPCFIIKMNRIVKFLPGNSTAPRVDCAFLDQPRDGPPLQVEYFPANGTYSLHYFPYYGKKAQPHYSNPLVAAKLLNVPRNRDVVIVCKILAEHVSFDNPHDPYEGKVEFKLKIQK
Nature of the experiment: Inhibition of proton pump (H+/K+-ATPase) activity in hog gastric vesicles. The experiment is classed as biochemical. The conditions noted are these: K+ specific H+/K+-ATPase activity, pH 7.4, 37° C. for 40 minutes, malachite green. As for the experimental part:
1) Preparation of Gastric Vesicles
Gastric vesicles were prepared from hog stomach by centrifugation (Edd C. Rabon et al., Preparation of Gastric H^+,K^+-ATPase, Methods in enzymology, vol. 157 Academic Press Inc., (1988), pp. 649-654). The protein contents of the prepared gastric vesicles were quantified with a Bicinchoninic Acid (BCA) kit.
2) Measurement of Effect of Inhibiting Proton Pump (H^+/K^+-ATPase) Activity
The effect of inhibiting proton pump activity by the compound of the present invention was measured in a 96-well plate. In this experiment, K^+ specific H^+/K^+-ATPase activity was calculated based on the difference between H^+/K^+-ATPase activity in the presence of K^+ ions and H^+/K^+-ATPase activity in the absence of K^+ ions. In the 96-well plate, to negative and positive control groups, 0.5% dimethylsulfoxide (DMSO) in buffer was added, and to the test groups, the compound of the present invention was added. All the analyses were conducted at room temperature with the reaction volume of 100 μl. To a reaction buffer solution (60 mmol/l Tris-HCl buffer solution, pH 7.4) containing hog gastric vesicle, DMSO and each concentration of compound were added, and then, 10 μl of a 10 mmol/l adenosine triphosphate tris buffer solution (60 mmol/l Tris-HCl buffer solution, pH 7.4) was added to initiate an enzyme reaction. The enzyme reaction was conducted at 37° C. for 40 minutes, 50 μl of a malachite green solution (0.12% malachite green solution, 5.8% ammonium molybdate and 11% tween 20 were mixed at a ratio of 100:67:2 in 6.2 N sulfuric acid) was added to stop the reaction, and 50 μl of 15.1% sodium citrate was added. During the reaction, the amount of monophosphate (Pi) was measured at 570 nm using micro plate reader (FLUOstar Omega, BMG Company). Inhibition rate (%) was measured from the activity values of the control groups and the activity values of various concentrations of the test compound, and IC50 of the test compound was calculated from each % inhibition value of the compound using Logistic 4-parameter function of Sigmaplot 8.0 program.
The molecule `CNC1CCc2c1cn(S(=O)(=O)c1cccc(Cl)c1)c2C` (stereo not drawn) [Example 2, 2-((3-chlorophenyl)sulfonyl)-N,1-dimethyl-2,4,5,6-tetrahydrocyclopenta[c]pyrrol-4-amine] registered an IC50 of 10000 nM. Turning to `CNC1CCc2c1cn(S(=O)(=O)c1cccc(Cl)c1)c2-c1ccccc1` (stereo not drawn) [Example 3, 2-((3-chlorophenyl)sulfonyl)-N-methyl-1-phenyl-2,4,5,6-tetrahydrocyclopenta[c]pyrrol-4-amine], the half-maximal inhibitory concentration (IC50) was 450 nM. The molecule `CNC1CCc2c1cn(S(=O)(=O)c1cccc(Cl)c1)c2-c1ccccc1C` (stereo not drawn) [Example 4, 2-((3-chlorophenyl)sulfonyl)-N-methyl-1-(o-tolyl)-2,4,5,6-tetrahydrocyclopenta[c]pyrrol-4-amine] had an IC50 of 610 nM.

In the case of `CNC1CCc2c1cn(S(=O)(=O)c1cccc(Cl)c1)c2-c1ccccc1Cl` (stereo not drawn) [Example 5, 1-(2-chlorophenyl)-2-((3-chlorophenyl)sulfonyl)-N-methyl-2,4,5,6-tetrahydrocyclopenta[c]pyrrol-4-amine], the IC50 amounted to 740 nM.

`CNC1CCc2c1cn(S(=O)(=O)c1cccc(Cl)c1)c2-c1ccccc1C1CC=CC1` (stereo not drawn) [Example 6, 2-((3-chlorophenyl)sulfonyl)-1-(2-(cyclopent-3-en-1-yl)phenyl)-N-methyl-2,4,5,6-tetrahydrocyclopenta[c]pyrrol-4-amine] registered an IC50 of 1320 nM. The same measure for `CNC1CCc2c1cn(S(=O)(=O)c1cccc(Cl)c1)c2-c1ccccc1N1CCOCC1` (stereo not drawn) [Example 7]: 40000 nM; for `CNC1CCc2c1cn(S(=O)(=O)c1cccc(Cl)c1)c2-c1cccc(C)c1` (stereo not drawn) [Example 8, 2-((3-chlorophenyl)sulfonyl)-N-methyl-1-(m-tolyl)-2,4,5,6-tetrahydrocyclopenta[c]pyrrol-4-amine]: 750 nM. On to `CNC1CCc2c1cn(S(=O)(=O)c1cccc(Cl)c1)c2-c1cccc(F)c1` (stereo not drawn) [Example 9, 2-((3-chlorophenyl)sulfonyl)-1-(3-fluorophenyl)-N-methyl-2,4,5,6-tetrahydrocyclopenta[c]pyrrol-4-amine], for which the IC50 was 830 nM. The IC50 values of the last two molecules are within 1.5-fold of each other. The result for `CNC1CCc2c1cn(S(=O)(=O)c1cccc(Cl)c1)c2-c1cccc(C(F)(F)F)c1` (stereo not drawn) [Example 10, 2-((3-chlorophenyl)sulfonyl)-N-methyl-1-(3-(trifluoromethyl)phenyl)-2,4,5,6-tetrahydrocyclopenta[c]pyrrol-4-amine] reads 970 nM; that for `CNC1CCc2c1cn(S(=O)(=O)c1cccc(Cl)c1)c2-c1ccc(F)cc1` (stereo not drawn) [Example 11, 2-((3-chlorophenyl)sulfonyl)-1-(4-fluorophenyl)-N-methyl-2,4,5,6-tetrahydrocyclopenta[c]pyrrol-4-amine], 550 nM. As to `CNC1CCc2c1cn(S(=O)(=O)c1cccc(Cl)c1)c2-c1ccc(O)cc1` (stereo not drawn) [Example 12, 4-(2-((3-chlorophenyl)sulfonyl)-4-(methylamino)-2,4,5,6-tetrahydrocyclopenta[c]pyrrol-1-yl)phenol], half-maximal inhibition (IC50) required 470 nM.

In the case of `CNC1CCc2c1cn(S(=O)(=O)c1cccc(Cl)c1)c2-c1ccc(C#N)cc1` (stereo not drawn) [Example 13, 4-(2-((3-chlorophenyl)sulfonyl)-4-(methylamino)-2,4,5,6-tetrahydrocyclopenta[c]pyrrol-1-yl)benzonitrile], 1800 nM corresponded to half-maximal inhibition (IC50). As to `CNC1CCc2c1cn(S(=O)(=O)c1cccc(Cl)c1)c2-c1ccc(OC)cc1` (stereo not drawn) [Example 14, 2-((3-chlorophenyl)sulfonyl)-1-(4-methoxyphenyl)-N-methyl-2,4,5,6-tetrahydrocyclopenta[c]pyrrol-4-amine], the 50% inhibitory concentration (IC50) worked out at 1260 nM. `CNC1CCc2c1cn(S(=O)(=O)c1cccc(Cl)c1)c2-c1ccc(C(=O)OC)cc1` (stereo not drawn) [Example 15, methyl 4-(2-((3-chlorophenyl)sulfonyl)-4-(methylamino)-2,4,5,6-tetrahydrocyclopenta[c]pyrrol-1-yl)benzoate] yielded an IC50 of 2900 nM. The same measure for `CNC1CCc2c1cn(S(=O)(=O)c1cccc(Cl)c1)c2-c1ccc(C(F)(F)F)cc1` (stereo not drawn) [Example 16, 2-((3-chlorophenyl)sulfonyl)-N-methyl-1-(4-(trifluoromethyl)phenyl)-2,4,5,6-tetrahydrocyclopenta[c]pyrrol-4-amine]: 970 nM; for `CNC1CCc2c1cn(S(=O)(=O)c1cccc(Cl)c1)c2-c1ccc(OC(F)(F)F)cc1` (stereo not drawn) [Example 17, 2-((3-chlorophenyl)sulfonyl)-N-methyl-1-(4-(trifluoromethoxy)phenyl)-2,4,5,6-tetrahydrocyclopenta[c]pyrrol-4-amine]: 1390 nM; for `CNC1CCc2c1cn(S(=O)(=O)c1cccc(Cl)c1)c2-c1ccc(C)cc1F` (stereo not drawn) [Example 18, 2-((3-chlorophenyl)sulfonyl)-1-(2-fluoro-4-methylphenyl)-N-methyl-2,4,5,6-tetrahydrocyclopenta[c]pyrrol-4-amine]: 430 nM. On to `CNC1CCc2c1cn(S(=O)(=O)c1cccc(Cl)c1)c2-c1ccc(F)cc1F` (stereo not drawn) [Example 19, 2-((3-chlorophenyl)sulfonyl)-1-(2,4-difluorophenyl)-N-methyl-2,4,5,6-tetrahydrocyclopenta[c]pyrrol-4-amine], for which it took 280 nM to reach half-maximal inhibition (IC50).

Regarding `CNC1CCc2c1cn(S(=O)(=O)c1cccc(Cl)c1)c2-c1ccc(Cl)cc1F` (stereo not drawn) [Example 20, 1-(4-chloro-2-fluorophenyl)-2-((3-chlorophenyl)sulfonyl)-N-methyl-2,4,5,6-tetrahydrocyclopenta[c]pyrrol-4-amine], the IC50 was 540 nM. `CNC1CCc2c1cn(S(=O)(=O)c1cccc(Cl)c1)c2-c1ccc(Cl)cc1Cl` (stereo not drawn) [Example 21, 2-((3-chlorophenyl)sulfonyl)-1-(2,4-dichlorophenyl)-N-methyl-2,4,5,6-tetrahydrocyclopenta[c]pyrrol-4-amine] showed a concentration for half-maximal inhibition (IC50) of 900 nM.

Consider `CNC1CCc2c1cn(S(=O)(=O)c1cccc(Cl)c1)c2-c1cc(Cl)ccc1F` (stereo not drawn) [Example 22, 1-(5-chloro-2-fluorophenyl)-2-((3-chlorophenyl)sulfonyl)-N-methyl-2,4,5,6-tetrahydrocyclopenta[c]pyrrol-4-amine], for which 450 nM corresponded to half-maximal inhibition (IC50).

For `CNC1CCc2c1cn(S(=O)(=O)c1cccc(Cl)c1)c2-c1cc(Cl)ccc1Cl` (stereo not drawn) [Example 23, 2-((3-chlorophenyl)sulfonyl)-1-(2,5-dichlorophenyl)-N-methyl-2,4,5,6-tetrahydrocyclopenta[c]pyrrol-4-amine], inhibition was half-maximal at 410 nM (IC50).

`CNC1CCc2c1cn(S(=O)(=O)c1cccc(Cl)c1)c2-c1ccc(F)c(F)c1` (stereo not drawn) [Example 24, 2-((3-chlorophenyl)sulfonyl)-1-(3,4-difluorophenyl)-N-methyl-2,4,5,6-tetrahydrocyclopenta[c]pyrrol-4-amine] came in with an IC50 of 480 nM.

In turn, `CNC1CCc2c1cn(S(=O)(=O)c1cccc(Cl)c1)c2-c1cc(Cl)cc(Cl)c1` (stereo not drawn) [Example 25, 2-((3-chlorophenyl)sulfonyl)-1-(3,5-dichlorophenyl)-N-methyl-2,4,5,6-tetrahydrocyclopenta[c]pyrrol-4-amine] showed an IC50 of 790 nM. This IC50 lies about 1.6-fold higher than the previous one. The molecule `CNC1CCc2c1cn(S(=O)(=O)c1cccc(Cl)c1)c2-c1cc(Cl)c(C)cc1F` (stereo not drawn) [Example 26, 1-(5-chloro-2-fluoro-4-methylphenyl)-2-((3-chlorophenyl)sulfonyl)-N-methyl-2,4,5,6-tetrahydrocyclopenta[c]pyrrol-4-amine] returned a concentration for half-maximal inhibition (IC50) of 620 nM. Take `CNC1CCc2c1cn(S(=O)(=O)c1cccc(Cl)c1)c2Cc1ccccc1` (stereo not drawn) [Example 27, 1-benzyl-2-((3-chlorophenyl)sulfonyl)-N-methyl-2,4,5,6-tetrahydrocyclopenta[c]pyrrol-4-amine]: 7010 nM corresponded to half-maximal inhibition (IC50). In turn, `CNC1CCc2c1cn(S(=O)(=O)c1cccc(Cl)c1)c2-c1ccc2c(c1)OCO2` (stereo not drawn) [Example 28, 1-(benzo[d][1,3]dioxol-5-yl)-2-((3-chlorophenyl)sulfonyl)-N-methyl-2,4,5,6-tetrahydrocyclopenta[c]pyrrol-4-amine] registered a half-inhibitory concentration (IC50) of 590 nM. `CNC1CCc2c1cn(S(=O)(=O)c1cccc(Cl)c1)c2-c1ccc2occc2c1` (stereo not drawn) [Example 29, 1-(benzofuran-5-yl)-2-((3-chlorophenyl)sulfonyl)-N-methyl-2,4,5,6-tetrahydrocyclopenta[c]pyrrol-4-amine]: the IC50 came to 1280 nM. In turn, `CNC1CCc2c1cn(S(=O)(=O)c1cccc(Cl)c1)c2-c1cnn(C)c1` (stereo not drawn) [Example 30, 2-((3-chlorophenyl)sulfonyl)-N-methyl-1-(1-methyl-1H-pyrazol-4-yl)-2,4,5,6-tetrahydrocyclopenta[c]pyrrol-4-amine] had an IC50 of 1040 nM. This IC50 and that of the molecule before are within 1.5-fold of each other. On to `CNC1CCc2c1cn(S(=O)(=O)c1cccc(Cl)c1)c2-c1ccoc1` (stereo not drawn) [Example 31, 2-((3-chlorophenyl)sulfonyl)-1-(furan-3-yl)-N-methyl-2,4,5,6-tetrahydrocyclopenta[c]pyrrol-4-amine], for which half-maximal inhibition (IC50) required 1340 nM.

What is called IC50 is the concentration that gives 50% inhibition. Lower therefore signals higher potency.
